Assays:
green foxtail [1] = experiment: Test Example 4: herbicidal effect by soil treatment (Table 19, symbol G); format: in vivo, green foxtail (Setaria viridis); details: amount of applied herbicide 320 g/ha
In short: (§1)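 Seeds were sown in sterilized diluvial soil and covered with about 1.5 cm of soil. An emulsion formulation diluted with water to a predetermined herbicide amount was sprayed evenly onto the soil surface. Plants grew in a greenhouse at 25° C. to 30° C., and the effect was scored three weeks after application using criteria from an earlier test.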

southern crabgrass [2] = experiment: Test Example 5: herbicidal effect by foliage application, plastic box (Table 20, symbol F); format: in vivo, southern crabgrass (Digitaria ciliaris); details: foliage application, 320 g/ha, evaluated three weeks after application
In short: (§2)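 Plants sown in sterilized diluvial soil and grown 14 days in a greenhouse at 25° C to 30° C, then sprayed on the foliage with the compound's emulsion diluted in water to a predetermined herbicide amount. Injury to weeds and crops scored three weeks after application on a visual rating scale.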

southern crabgrass [3] = experiment: Test Example 4: herbicidal effect by soil treatment (Table 19, symbol F); format: in vivo, southern crabgrass (Digitaria ciliaris); details: amount of applied herbicide 320 g/ha
In short: as §1

green foxtail [4] = experiment: Test Example 5: herbicidal effect by foliage application, plastic box (Table 20, symbol G); format: in vivo, green foxtail (Setaria viridis); details: foliage application, 320 g/ha, evaluated three weeks after application
In short: as §2

Italian ryegrass [5] = experiment: Test Example 4: herbicidal effect by soil treatment (Table 19, symbol K); format: in vivo, Italian ryegrass (Lolium multiflorum); details: amount of applied herbicide 320 g/ha
In short: as §1

barnyard grass [6] = experiment: Test Example 3: herbicidal effect by foliage application, Wagner pot (Table 18, symbol H); format: in vivo, barnyard grass (Echinochloa crus-galli); details: amount of applied herbicide 320 g/ha
In short: (§3)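 Plants were sown in alluvial soil held under 0.1–0.5 cm standing water and grown 14 days in a greenhouse at 25–30 °C. An emulsifiable formulation, water-diluted to the set dose, was then sprayed onto the foliage, and effects were scored three weeks later using previously defined criteria.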

Chinese sprangletop = experiment: Test Example 3: herbicidal effect by foliage application, Wagner pot (Table 18, symbol D); format: in vivo, chinese sprangletop (Leptochloa chinensis); details: amount of applied herbicide 320 g/ha
In short: as §3

redroot pigweed [7] = experiment: Test Example 4: herbicidal effect by soil treatment (Table 19, symbol N); format: in vivo, redroot pigweed (Amaranthus retroflexus); details: amount of applied herbicide 320 g/ha
In short: as §1

lambsquarters [8] = experiment: Test Example 4: herbicidal effect by soil treatment (Table 19, symbol O); format: in vivo, lambsquarters (Chenopodium album); details: amount of applied herbicide 320 g/ha
In short: as §1

persian speedwell = experiment: Test Example 5: herbicidal effect by foliage application, plastic box (Table 20, symbol R); format: in vivo, Persian speedwell (Veronica persica); details: foliage application, 320 g/ha, evaluated three weeks after application
In short: as §2

wild oat [9] = experiment: Test Example 4: herbicidal effect by soil treatment (Table 19, symbol I); format: in vivo, wild oat (Avena fatua); details: amount of applied herbicide 320 g/ha
In short: as §1

blackgrass [10] = experiment: Test Example 4: herbicidal effect by soil treatment (Table 19, symbol J); format: in vivo, blackgrass (Alopecurus myosuroides); details: amount of applied herbicide 320 g/ha
In short: as §1

rice flat sedge = experiment: Test Example 3: herbicidal effect by foliage application, Wagner pot (Table 18, symbol E); format: in vivo, rice flat sedge (Cyperus iria); details: amount of applied herbicide 320 g/ha
In short: as §3

barnyard grass [11] = experiment: Test Example 5: herbicidal effect by foliage application, plastic box (Table 20, symbol H); format: in vivo, barnyard grass (Echinochloa crus-galli); details: foliage application, 320 g/ha, evaluated three weeks after application
In short: as §2

wild oat [12] = experiment: Test Example 5: herbicidal effect by foliage application, plastic box (Table 20, symbol I); format: in vivo, wild oat (Avena fatua); details: foliage application, 320 g/ha, evaluated three weeks after application
In short: as §2

barnyard grass [13] = experiment: Test Example 4: herbicidal effect by soil treatment (Table 19, symbol H); format: in vivo, barnyard grass (Echinochloa crus-galli); details: amount of applied herbicide 320 g/ha
In short: as §1

redroot pigweed [14] = experiment: Test Example 5: herbicidal effect by foliage application, plastic box (Table 20, symbol N); format: in vivo, redroot pigweed (Amaranthus retroflexus); details: foliage application, 320 g/ha, evaluated three weeks after application
In short: as §2

windgrass [15] = experiment: Test Example 5: herbicidal effect by foliage application, plastic box (Table 20, symbol L); format: in vivo, windgrass (Apera spica-venti); details: foliage application, 320 g/ha, evaluated three weeks after application
In short: as §2

windgrass [16] = experiment: Test Example 4: herbicidal effect by soil treatment (Table 19, symbol L); format: in vivo, windgrass (Apera spica-venti); details: amount of applied herbicide 320 g/ha
In short: as §1

velvetleaf [17] = experiment: Test Example 5: herbicidal effect by foliage application, plastic box (Table 20, symbol M); format: in vivo, velvetleaf (Abutilon theophrasti); details: foliage application, 320 g/ha, evaluated three weeks after application
In short: as §2

Italian ryegrass [18] = experiment: Test Example 5: herbicidal effect by foliage application, plastic box (Table 20, symbol K); format: in vivo, Italian ryegrass (Lolium multiflorum); details: foliage application, 320 g/ha, evaluated three weeks after application
In short: as §2

lambsquarters [19] = experiment: Test Example 5: herbicidal effect by foliage application, plastic box (Table 20, symbol O); format: in vivo, lambsquarters (Chenopodium album); details: foliage application, 320 g/ha, evaluated three weeks after application
In short: as §2

false cleavers = experiment: Test Example 4: herbicidal effect by soil treatment (Table 19, symbol Q); format: in vivo, false cleavers (Galium spurium); details: amount of applied herbicide 320 g/ha
In short: as §1

chickweed = experiment: Test Example 5: herbicidal effect by foliage application, plastic box (Table 20, symbol P); format: in vivo, common chickweed (Stellaria media); details: foliage application, 320 g/ha, evaluated three weeks after application
In short: as §2

velvetleaf [20] = experiment: Test Example 4: herbicidal effect by soil treatment (Table 19, symbol M); format: in vivo, velvetleaf (Abutilon theophrasti); details: amount of applied herbicide 320 g/ha
In short: as §1

blackgrass [21] = experiment: Test Example 5: herbicidal effect by foliage application, plastic box (Table 20, symbol J); format: in vivo, blackgrass (Alopecurus myosuroides); details: foliage application, 320 g/ha, evaluated three weeks after application
In short: as §2

For `COc1ccccc1-c1sc2ccc(C(F)(F)F)cc2c1-c1c(O)c(C)nn(C)c1=O` [2-162], the “G: green foxtail, herbicidal effect rating” value (green foxtail [1]) was 3 (Herbicidal rate of 40% or more and less than 70%), the “herbicidal effect on F: southern crabgrass (criteria 0-5)” value (southern crabgrass [2]) was 0 (Herbicidal rate of 5% or less (almost no effect)) and the “F: southern crabgrass, herbicidal effect rating” value (southern crabgrass [3]) was 0 (Herbicidal rate of 5% or less (almost no effect)). For the same compound, the “herbicidal effect on G: green foxtail (criteria 0-5)” value (green foxtail [4]) was 0 (Herbicidal rate of 5% or less (almost no effect)), the “K: Italian ryegrass, herbicidal effect rating” value (Italian ryegrass [5]) was 0 (Herbicidal rate of 5% or less (almost no effect)) and the “herbicidal effect on H: barnyard grass” value (barnyard grass [6]) was 3 (Herbicidal rate of 40% or more and less than 70%). The “herbicidal effect on D: Chinese sprangletop” value (Chinese sprangletop) was 0 (Herbicidal rate of 5% or less (almost no effect)), the “N: redroot pigweed, herbicidal effect rating” value (redroot pigweed [7]) was 2 (Herbicidal rate of 20% or more and less than 40%) and the “O: lambsquarters, herbicidal effect rating” value (lambsquarters [8]) was 1 (Herbicidal rate of 5% or more and less than 20%). The “herbicidal effect on R: persian speedwell (criteria 0-5)” value (persian speedwell) was 2 (Herbicidal rate of 20% or more and less than 40%), the “I: wild oat, herbicidal effect rating” value (wild oat [9]) was 0 (Herbicidal rate of 5% or less (almost no effect)) and the “J: blackgrass, herbicidal effect rating” value (blackgrass [10]) was 0 (Herbicidal rate of 5% or less (almost no effect)). For the same compound, the “herbicidal effect on E: rice flat sedge” value (rice flat sedge) was 3 (Herbicidal rate of 40% or more and less than 70%), the “herbicidal effect on H: barnyard grass (criteria 0-5)” value (barnyard grass [11]) was 0 (Herbicidal rate of 5% or less (almost no effect)) and the “herbicidal effect on I: wild oat (criteria 0-5)” value (wild oat [12]) was 0 (Herbicidal rate of 5% or less (almost no effect)). For the same compound, the “H: barnyard grass, herbicidal effect rating” value (barnyard grass [13]) was 0 (Herbicidal rate of 5% or less (almost no effect)), the “herbicidal effect on N: redroot pigweed (criteria 0-5)” value (redroot pigweed [14]) was 3 (Herbicidal rate of 40% or more and less than 70%) and the “herbicidal effect on L: windgrass (criteria 0-5)” value (windgrass [15]) was 0 (Herbicidal rate of 5% or less (almost no effect)). The “L: windgrass, herbicidal effect rating” value (windgrass [16]) was 0 (Herbicidal rate of 5% or less (almost no effect)), the “herbicidal effect on M: velvetleaf (criteria 0-5)” value (velvetleaf [17]) was 2 (Herbicidal rate of 20% or more and less than 40%) and the “herbicidal effect on K: Italian ryegrass (criteria 0-5)” value (Italian ryegrass [18]) was 0 (Herbicidal rate of 5% or less (almost no effect)). For the same compound, the “herbicidal effect on O: lambsquarters (criteria 0-5)” value (lambsquarters [19]) was 0 (Herbicidal rate of 5% or less (almost no effect)), the “Q: false cleavers, herbicidal effect rating” value (false cleavers) was 0 (Herbicidal rate of 5% or less (almost no effect)) and the “herbicidal effect on P: chickweed (criteria 0-5)” value (chickweed) was 5 (Herbicidal rate of 90% or more (almost completely withered)). For the same compound, the “M: velvetleaf, herbicidal effect rating” value (velvetleaf [20]) was 0 (Herbicidal rate of 5% or less (almost no effect)) and the “herbicidal effect on J: blackgrass (criteria 0-5)” value (blackgrass [21]) was 0 (Herbicidal rate of 5% or less (almost no effect)).

— patent publication US20230085307A1, “PYRIDAZINONE COMPOUND AND HERBICIDE” (NISSAN CHEMICAL CORPORATION, priority 2019, published 2023)
